Results from patent US12459974B2, “Bicyclic peptide ligands specific for Nectin-4” (priority 2018, dated 2025).
Where “and” joins values, the source holds several entries; their conditions need not be identical. Equal values may be shown once. *1 amine or outer side, *2 acyl side, *3 side chain or, on linkers, in order; H or OH if unused. Where a SMILES comes first, the peptide text is derived from it. Bridges are numbered along the chain shown (N, C = ends). Roman numbers before positions name the chains, in order. [ ]: non-standard residue; d: D form. The star is where a group is joined. ξ: configuration not given here. TATA = O=C(CC[*:1])N1CN(C(=O)CC[*:2])CN(C(=O)CC[*:3])C1; Dolaproine = CO[C@@H]([C@@H]1CCCN1)[C@@H](C)C(=O)O; X1 = CC[C@H](C)C(C(CC(=O)[*:2])OC)N(C)[*:1]; 1Nal = N[C@@H](Cc1cccc2ccccc12)C(=O)O; X3 = O=C(CCCC(=O)[*:2])NCCC(=O)[*:1]; PABC = O=C(OCc1ccc(N[*:1])cc1)[*:2]; Hyp = O=C(O)[C@@H]1C[C@@H](O)CN1; hArg = N=C(N)NCCCC[C@H](N)C(=O)O; Cit = NC(=O)NCCC[C@H](N)C(=O)O; X2 = CC(N*)[C@@H](O)c1ccccc1; ξNMeV = CNC(C(=O)O)C(C)C; ξV = CC(C)C(N)C(=O)O; Sar = CNCC(=O)O

Experiments:
Design in all cases: species or system Mus Musculus
NCI-H292 xenograft = assay: Example 1: in vivo efficacy in NCI-H292 xenograft (NSCLC model) in BALB/c nude mice
Procedure: The major endpoint was to see if the tumor growth could be delayed or mice could be cured. Tumor volume was measured three times weekly in two dimensions using a caliper, and the volume was expressed in mm^3 using the formula: V=0.5 a×b^2 where a and b are the long and short diameters of the tumor, respectively. The tumor size was then used for calculations of T/C value. The T/C value (in percent) is an indication of antitumor effectiveness; T and C are the mean volumes of the treated and control groups, respectively, on a given day. TGI was calculated for each group using the formula: TGI (%)=[1−(Ti−T0)/(Vi−V0)]×100; Ti is the average tumor volume of a treatment group on a given day, T0 is the average tumor volume of the treatment group on the day of treatment start, Vi is the average tumor volume of the vehicle control group on the same day with Ti, and V0 is the average tumor volume of the vehicle group on the day of treatment start.
A one-way ANOVA was performed to compare tumor volume among groups, and when a significant F-statistics (a ratio of treatment variance to the error variance) was obtained, comparisons between groups were carried out with Games-Howell test. All data were analyzed using GraphPad Prism 5.0. P<0.05 was considered to be statistically significant.
The NCI-H292 tumor cells will be maintained in medium supplemented with 10% heat inactivated fetal bovine serum at 37° C. in an atmosphere of 5% CO2 in air. The tumor cells will be routinely subcultured twice weekly. The cells growing in an exponential growth phase will be harvested and counted for tumor inoculation.
Each mouse will be inoculated subcutaneously at the right flank with NCI-H292 tumor cells (10×10^6) in 0.2 ml of PBS for tumor development. The animals will be randomized and treatment will be started when the average tumor volume reaches approximately 158-406 mm^3.

Panc2.13 xenograft = assay: Example 3: in vivo efficacy in Panc2.13 xenograft (pancreatic cancer model) in Balb/c nude mice
LU-01-0412 PDX = assay: Example 12: in vivo efficacy in Lu-01-0412 PDX model of lung cancer
Procedure: Animals were checked daily for any effects of tumor growth and treatments on normal behavior such as mobility, food and water consumption (by looking only), body weight gain/loss, eye/hair matting and any other abnormal effect as stated in the protocol. Death and observed clinical signs were recorded on the basis of the numbers of animals within each subset.

[1] = 3 mpk biw iv, day 14 (Table 13)

`CC[C@H](C)C(C(CC(=O)N1CCC[C@H]1[C@H](OC)[C@@H](C)C(=O)NC(C)[C@@H](O)c1ccccc1)OC)N(C)C(=O)[C@@H](NC(=O)C(C(C)C)N(C)C(=O)OCc1ccc(NC(=O)[C@H](CCCNC(N)=O)NC(=O)C(NC(=O)CCCC(=O)NCCC(=O)N(C)CC(=O)N(C)CC(=O)N(C)CC(=O)N(C)CC(=O)N(C)CC(=O)N(C)CC(=O)N(C)CC(=O)N(C)CC(=O)N(C)CC(=O)N(C)CC(=O)N[C@H]2CSCCC(=O)N3CN4CN(C3)C(=O)CCSC[C@H](NC(=O)[C@@H](CC(=O)O)NC(=O)[C@H](Cc3cccc5ccccc35)NC(=O)[C@@H]3CCCN3C2=O)C(=O)N[C@@H](CCSC)C(=O)N[C@@H](CCCCNC(=N)N)C(=O)N[C@@H](CC(=O)O)C(=O)N[C@@H](Cc2c[nH]c3ccccc23)C(=O)N[C@@H](CO)C(=O)N[C@@H]([C@@H](C)O)C(=O)N2CCC[C@H]2C(=O)N2C[C@H](O)C[C@H]2C(=O)N[C@@H](Cc2c[nH]c3ccccc23)C(=O)N[C@H](C(N)=O)CSCCC4=O)C(C)C)cc1)C(C)C` (stereo partly drawn) [BCY8245, MMAE-PABC-Cit-Val-Glutaryl-BCY8234] (I: [Sar][Sar][Sar][Sar][Sar][Sar][Sar][Sar][Sar][Sar]CP[1Nal][dD]CM[hArg]DWSTP[Hyp]WC-NH2 / II: [ξV][Cit][PABC][ξNMeV]V[X1][Dolaproine]-X2; linker I:11-I:15-I:25 via TATA; linker I:N-II:N via X3) was tested, and the Tumor volume (NCI-H292 xenograft; 1/3/5 mpk qw iv, day 16) was 626 ± 93 mm^3, the Tumor volume (NCI-H292 xenograft; 1/3/5 mpk qw iv, day 18) was 611 ± 93 mm^3 and the T/C (NCI-H292 xenograft; 1/3/5 mpk qw iv, day 21) was 30.4%. The TGI (NCI-H292 xenograft; 1/3/5 mpk qw iv, day 21) was 85.7%, the Tumor volume (NCI-H292 xenograft; 1/3/5 mpk qw iv, day 21) was 654 ± 152 mm^3 and the Tumor volume (NCI-H292 xenograft; 1/3/5 mpk qw iv, day 23) was 732 ± 139 mm^3. For the same molecule, the Tumor volume (NCI-H292 xenograft; 1/3/5 mpk qw iv, day 25) was 755 ± 132 mm^3, the Tumor volume (NCI-H292 xenograft; 1/3/5 mpk qw iv, day 28) was 713 ± 114 mm^3 and the Tumor volume (NCI-H292 xenograft; 1/3/5 mpk qw iv, day 30) was 762 ± 165 mm^3. The Tumor volume (NCI-H292 xenograft; 1/3/5 mpk qw iv, day 32) was 968 ± 290 mm^3, the Tumor volume (NCI-H292 xenograft; 1/3/5 mpk qw iv, day 35) was 1119 ± 216 mm^3 and the Tumor volume (NCI-H292 xenograft; 3 mpk biw iv, day 0 (Table 9)) was 162 ± 13 mm^3. For the same molecule, the Tumor volume (NCI-H292 xenograft; 3 mpk biw iv, day 2 (Table 9)) was 243 ± 19 mm^3, the Tumor volume (NCI-H292 xenograft; 3 mpk biw iv, day 4 (Table 9)) was 211 ± 12 mm^3 and the Tumor volume (NCI-H292 xenograft; 3 mpk biw iv, day 7 (Table 9)) was 101 ± 11 mm^3. For the same molecule, the Tumor volume (NCI-H292 xenograft; 3 mpk biw iv, day 9 (Table 9)) was 100 ± 8 mm^3, the Tumor volume (NCI-H292 xenograft; 3 mpk biw iv, day 11 (Table 9)) was 87 ± 7 mm^3 and the Tumor volume (NCI-H292 xenograft; 3 mpk biw iv, day 14 (Table 9)) was 65 mm^3 and 65 ± 3 mm^3. The T/C (NCI-H292 xenograft; [1]) was 6.9%, the TGI (NCI-H292 xenograft; [1]) was 112.2% and the Tumor volume (NCI-H292 xenograft; 3 mpk qw iv, day 0 (Table 9)) was 160 ± 5 mm^3. For the same molecule, the Tumor volume (NCI-H292 xenograft; 3 mpk qw iv, day 2 (Table 9)) was 220 ± 11 mm^3, the Tumor volume (NCI-H292 xenograft; 3 mpk qw iv, day 4 (Table 9)) was 266 ± 15 mm^3 and the Tumor volume (NCI-H292 xenograft; 3 mpk qw iv, day 7 (Table 9)) was 218 ± 23 mm^3. The Tumor volume (NCI-H292 xenograft; 3 mpk qw iv, day 9 (Table 9)) was 167 ± 10 mm^3, the Tumor volume (NCI-H292 xenograft; 3 mpk qw iv, day 11 (Table 9)) was 161 ± 36 mm^3 and the Tumor volume (NCI-H292 xenograft; 3 mpk qw iv, day 14 (Table 9)) was 149 mm^3 and 149 ± 43 mm^3. The T/C (NCI-H292 xenograft; 3 mpk qw iv, day 14 (Table 13)) was 15.8%, the TGI (NCI-H292 xenograft; 3 mpk qw iv, day 14 (Table 13)) was 101.4% and the Tumor volume (NCI-H292 xenograft; 5 mpk qw iv, day 0 (Table 9)) was 160 ± 9 mm^3. It also gave a Tumor volume (NCI-H292 xenograft; 5 mpk qw iv, day 2 (Table 9)) of 176 ± 7 mm^3, a Tumor volume (NCI-H292 xenograft; 5 mpk qw iv, day 4 (Table 9)) of 191 ± 3 mm^3 and a Tumor volume (NCI-H292 xenograft; 5 mpk qw iv, day 7 (Table 9)) of 105 ± 8 mm^3. For the same molecule, the Tumor volume (NCI-H292 xenograft; 5 mpk qw iv, day 9 (Table 9)) was 82 ± 3 mm^3, the Tumor volume (NCI-H292 xenograft; 5 mpk qw iv, day 11 (Table 9)) was 91 ± 14 mm^3 and the Tumor volume (NCI-H292 xenograft; 5 mpk qw iv, day 14 (Table 9)) was 83 mm^3 and 83 ± 8 mm^3. For the same molecule, the T/C (NCI-H292 xenograft; 5 mpk qw iv, day 14 (Table 13)) was 8.8%, the TGI (NCI-H292 xenograft; 5 mpk qw iv, day 14 (Table 13)) was 109.8% and the “antitumor activity (in words)” value (NCI-H292 xenograft; after increasing the dosage to 3 mg/kg from day 7) was “obvious antitumor activity”. The “efficacy (in words)” value (NCI-H292 xenograft; after increasing the dosage to 5 mg/kg on day 21) was “not further improved”, the “anti-tumour activity (in words)” value (NCI-H292 xenograft; mouse, in vivo) was “good anti-tumour activity” and the TGI (Panc2.13 xenograft; 3 mg/kg biw, day 14) was 79.1%. For the same molecule, the “Tumor volume (TV)” value (Panc2.13 xenograft; 3 mg/kg biw, day 14) was 231 mm^3, the TGI (Panc2.13 xenograft; 3 mg/kg qw, day 14) was 69.2% and the “Tumor volume (TV)” value (Panc2.13 xenograft; 3 mg/kg qw, day 14) was 271 mm^3. The TGI (Panc2.13 xenograft; 5 mg/kg qw, day 14) was 77.5%, the “Tumor volume (TV)” value (Panc2.13 xenograft; 5 mg/kg qw, day 14) was 238 mm^3 and the Tumor volume (Panc2.13 xenograft; 3 mpk, biw, iv, day 0 after start of treatment) was 148 ± 46 mm^3. For the same molecule, the Tumor volume (Panc2.13 xenograft; 3 mpk, biw, iv, day 2) was 170 ± 38 mm^3, the Tumor volume (Panc2.13 xenograft; 3 mpk, biw, iv, day 4) was 204 ± 57 mm^3 and the Tumor volume (Panc2.13 xenograft; 3 mpk, biw, iv, day 7) was 216 ± 56 mm^3. For the same molecule, the Tumor volume (Panc2.13 xenograft; 3 mpk, biw, iv, day 9) was 236 ± 59 mm^3, the Tumor volume (Panc2.13 xenograft; 3 mpk, biw, iv, day 11) was 241 ± 60 mm^3 and the Tumor volume (Panc2.13 xenograft; 3 mpk, biw, iv, day 14) was 231 ± 57 mm^3. The T/C (Panc2.13 xenograft; 3 mpk, biw, day 14) was 42.3%, the TGI (Panc2.13 xenograft; 3 mpk, biw, day 14) was 79.1% and the “Tumor volume” value (Panc2.13 xenograft; 3 mpk, biw, day 14, Mean ± SEM (Table 19)) was 231 ± 57 mm^3. For the same molecule, the Tumor volume (Panc2.13 xenograft; 3 mpk, qw, iv, day 0 after start of treatment) was 149 ± 34 mm^3, the Tumor volume (Panc2.13 xenograft; 3 mpk, qw, iv, day 2) was 160 ± 33 mm^3 and the Tumor volume (Panc2.13 xenograft; 3 mpk, qw, iv, day 4) was 191 ± 39 mm^3. It also gave a Tumor volume (Panc2.13 xenograft; 3 mpk, qw, iv, day 7) of 215 ± 53 mm^3, a Tumor volume (Panc2.13 xenograft; 3 mpk, qw, iv, day 9) of 242 ± 62 mm^3 and a Tumor volume (Panc2.13 xenograft; 3 mpk, qw, iv, day 11) of 259 ± 59 mm^3. The Tumor volume (Panc2.13 xenograft; 3 mpk, qw, iv, day 14) was 271 ± 54 mm^3, the T/C (Panc2.13 xenograft; 3 mpk, qw, day 14) was 49.6% and the TGI (Panc2.13 xenograft; 3 mpk, qw, day 14) was 69.2%. The “Tumor volume” value (Panc2.13 xenograft; 3 mpk, qw, day 14, Mean ± SEM (Table 19)) was 271 ± 54 mm^3, the Tumor volume (Panc2.13 xenograft; 5 mpk, qw, iv, day 0 after start of treatment) was 149 ± 18 mm^3 and the Tumor volume (Panc2.13 xenograft; 5 mpk, qw, iv, day 2) was 180 ± 11 mm^3. It also gave a Tumor volume (Panc2.13 xenograft; 5 mpk, qw, iv, day 4) of 231 ± 33 mm^3, a Tumor volume (Panc2.13 xenograft; 5 mpk, qw, iv, day 7) of 242 ± 34 mm^3 and a Tumor volume (Panc2.13 xenograft; 5 mpk, qw, iv, day 9) of 248 ± 40 mm^3. For the same molecule, the Tumor volume (Panc2.13 xenograft; 5 mpk, qw, iv, day 11) was 231 ± 37 mm^3, the Tumor volume (Panc2.13 xenograft; 5 mpk, qw, iv, day 14) was 238 ± 40 mm^3 and the T/C (Panc2.13 xenograft; 5 mpk, qw, day 14) was 43.6%. The TGI (Panc2.13 xenograft; 5 mpk, qw, day 14) was 77.5%, the “Tumor volume” value (Panc2.13 xenograft; 5 mpk, qw, day 14, Mean ± SEM (Table 19)) was 238 ± 40 mm^3 and the “anti-tumour activity (in words)” value (Panc2.13 xenograft; mouse, in vivo) was “good anti-tumour activity”. The “efficacy (in words)” value (LU-01-0412 PDX; 1 mg/kg qw) was “reduction in tumour growth rate”, the “efficacy (in words)” value (LU-01-0412 PDX; 3 mg/kg qw) was “marked tumor regression” and the “animals with no tumour regrowth” value (LU-01-0412 PDX; 3 mg/kg qw, after cessation of dosing (Day 21) out to 105 days post study start) was 5/6. The “response of large tumors (vehicle treated group) to a single dose (in words)” value (LU-01-0412 PDX; single dose) was “regressed”.
